The results in this text go back to patent EP1142587A1 (priority 1998, dated 2000).

One data set deals with T1, dopamine D2 receptor (Rattus norvegicus, UniProt P61169).
T1 construct: A membrane fraction obtained from rat corpus striatum was prepared as a membrane fraction of a dopamine D2 receptor; from tissue; host or cells: rat corpus striatum membrane fraction
Description: biochemical. Format: binding.

The test system of the next data set is Sprague-Dawley rats. Conditions: rat, in vivo.
The next data set relates to mouse. Description: Anti-dopamine action against apomorphine-induced climbing behavior. Format: in vivo. The settings on record: for Wall climbing behavior: apomorphine (2mg/kg, s.c.) + test substance; for ED50: sc, apomorphine 2mg/kg s.c. 10 minutes after test drug, climbing measured from 20 minutes after apomorphine for 1 minute, read-out: ED50 value regarding anti-dopamine action. From the text:
The term "a compound having dopamine D2 receptor antagonist activity" is used herein to mean a compound showing a binding affinity in a D2 receptor membrane binding test, and also showing inhibiting effect to apomorphine-induced climbing behavior.
The administration of dopamine receptor agonists, apomorphine induces a continual climbing behavior in mice. A test for competitive action against this effect is generally used as a method for detecting the dopamine receptor antagonist. A mouse was put into a cylindrical wire gauze (10 cm diameter × 14cm height) and allowed to habituate itself with the circumstances for about 1 hour. Apomorphine (2mg/kg, s.c.) was administered to the mouse at 10 minutes after the administration of the test drug, and from 20 minutes after the administration of apomorphine, its climbing behavior (which means the period during which all four legs of the mouse have left from the ground) was measured for 1 minute. Furthermore, a sigmoid curve was determined from dose response by a method of least squares, and ED50 value was calculated.

A further data set deals with Mice. The settings on record: mouse, in vivo, ip.
For the next data set, the system named is ddY male mice. Put plainly: animal or person. In kind it is in vivo. The settings on record: Mus musculus, ip, 0.5 h, read-out: ED50 value regarding analgetic effect.

SMILES strings stand for the structures.

T1 sequence (P61169 whole entry): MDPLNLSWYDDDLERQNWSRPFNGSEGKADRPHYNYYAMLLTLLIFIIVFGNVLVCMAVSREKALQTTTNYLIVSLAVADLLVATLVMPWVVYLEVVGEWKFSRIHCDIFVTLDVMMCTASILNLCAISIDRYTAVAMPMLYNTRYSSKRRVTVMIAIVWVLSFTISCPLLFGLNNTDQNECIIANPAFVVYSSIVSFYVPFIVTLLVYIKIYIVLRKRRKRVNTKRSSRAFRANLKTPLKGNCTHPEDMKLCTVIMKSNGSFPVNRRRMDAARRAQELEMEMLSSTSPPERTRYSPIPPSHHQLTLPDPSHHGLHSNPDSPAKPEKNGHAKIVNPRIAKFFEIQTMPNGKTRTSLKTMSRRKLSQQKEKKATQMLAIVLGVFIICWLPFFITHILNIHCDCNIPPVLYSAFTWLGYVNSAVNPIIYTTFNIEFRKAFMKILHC

Usually Ki stands for a dissociation constant, usually derived from enzyme kinetics or from competition with a known ligand. Take `N=C1OC2(CCN(Cc3ccc(Cl)nc3)CC2)c2c1ccc1ccccc21` [Example 1, 1'-(6-chloro-3-pyridyl)methyl(benzo[g]1,3-dihydroisobenzofuran-1-spiro-4'-piperidine)-3-imine]: on dopamine D2 receptor, the affinity corresponds to a Ki of 230 nM.
Same read-out and setting: with `O=C1OC2(CCN(Cc3ccc(Cl)nc3)CC2)c2c1ccc1ccccc21` [Example 2, 1'-(6-chloro-3-pyridyl)methyl(benzo[g]1,3-dihydroisobenzofuran-1-spiro-4'-piperidine)-3-on] the figure was 532 nM; with `O=C1OC2(CCN(Cc3ccc(Cl)nc3)CC2)c2cc3ccccc3cc21` [Example 3, 1'-(6-chloro-3-pyridyl)methyl(benzo[f]1,3-dihydroisobenzofuran-1-spiro-4'-piperidine)-3-on], 1590 nM.
`O=C1OC2(CCN(Cc3ccccc3)CC2)c2c1ccc1ccccc21` [Example 11, 1'-benzyl(benzo[g]1,3-dihydroisobenzofuran-1-spiro-4'-piperidine)-3-on]: the affinity on dopamine D2 receptor, expressed as Ki, was 177 nM.
A word on the ED50: it is the dose at which the effect has come halfway, by size or by number of responders. As for `COc1ccc(CN2CCC3(CC2)C(=O)NCN3c2ccccc2)cc1` [Example 14, 1'-(4-methoxybenzyl)-spiroimidazolidine-4,4'-piperidine-3-phenyl-5-on], the “position palatability (psychological dependence / aversive effect)” value in the data set on Sprague-Dawley rats is reported as “neither psychological dependence nor aversive effects”. For the same compound, the affinity on dopamine D2 receptor, expressed as Ki, was 20 nM. Besides, in the data set on mouse, the Wall climbing behavior result is listed as “inhibitory effect” and the ED50 is 2.22 mg/kg. In addition, the “effect on locomotor activity” value with Mice is listed as “no effect on locomotor activity”.
Regarding `O=C1NCN(c2ccccc2)C12CCN(Cc1ccc(Cl)nc1)CC2` [Example 15, 1'-(6-chloro-3-pyridyl)methyl-spiroimidazolidine-4,4'-piperidine-3-phenyl-5-on], the Ki at dopamine D2 receptor came out at 3.6 nM. For the same compound, in the data set with mouse, the Wall climbing behavior result was “inhibitory effect” and the ED50 is 1.22 mg/kg. Also, the “effect on locomotor activity” value in the data set with Mice was “no effect on locomotor activity”.
As to `Cc1ccc(CN2CCC3(CC2)C(=O)NCN3c2ccccc2)cn1` [Example 16, 1'-(6-methyl-3-pyridyl)methyl-spiroimidazolidine-4,4'-piperidine-3-phenyl-5-on], in the data set with Sprague-Dawley rats, the “position palatability (psychological dependence / aversive effect)” value is “neither psychological dependence nor aversive effects”. This compound also showed a Ki at dopamine D2 receptor of 17 nM. Also, in the data set on mouse, the Wall climbing behavior entry is “inhibitory effect” and the 50% effective dose (ED50) was determined as 11.9 mg/kg. Also, in the data set on Mice, the “effect on locomotor activity” value is reported as “no effect on locomotor activity”.
Consider `O=C1NCN(c2ccccc2)C12CCN(Cc1cccnc1)CC2` [Example 17, 1'-(3-pyridyl)methyl-spiroimidazolidine-4,4'-piperidine-3-phenyl-5-on], for which the Ki at dopamine D2 receptor worked out at 457 nM. For the same compound, in the data set with Mice, the “effect on locomotor activity” value is “no effect on locomotor activity”.
The compound `O=C1NCN(c2ccccc2)C12CCN(Cc1ccc(Br)cc1)CC2` [Example 18, 1'-(4-bromobenzyl)-spiroimidazolidine-4,4'-piperidine-3-phenyl-5-on] came in with a Ki at dopamine D2 receptor of 5.7 nM. For the same compound, in the data set on mouse, the Wall climbing behavior entry is recorded as “inhibitory effect” and the ED50 came to 1.05 mg/kg. Moreover, in the data set on Mice, the “effect on locomotor activity” value is reported as “no effect on locomotor activity”.
In the same order, the values of `Cc1ccc(CN2CCC3(CC2)C(=O)NCN3c2ccccc2)cc1` [Example 23, 1'-(4-methylbenzyl)-spiroimidazolidine-4,4'-piperidine-3-phenyl-5-on] are 52 nM, “inhibitory effect”, 9.5 mg/kg and “no effect on locomotor activity”.
`CN1CC[C@]23c4c5ccc(O)c4O[C@H]2[C@@H](O)C=C[C@H]3[C@H]1C5` [Morphine, reference compound]: the “position palatability (psychological dependence / aversive effect)” value in the data set on Sprague-Dawley rats is on record as “strong rewarding effect”. Also, the ED50 in the data set with ddY male mice came to 13.7 mg/kg. In the data set with Mice, the “effect on locomotor activity” value was “strong locomotor activity promoting effect”.
Take `O=C1OC2(CCN(Cc3ccccc3)CC2)c2ccccc21` [Reference example 15, 1'-benzyl-spiro[benzodihydrofuran-1(3H),4'-piperidine)-3-on, reference compound]: the Ki at dopamine D2 receptor was more than 1000 nM.
